Assay results reported in the supplement of paper PMC12463676, “Small-molecule dissolution of stress granules by redox modulation benefits ALS models” (Nature Chemical Biology, 2025).

compound: NC(=O)CCCCC1CCSS1 [lipoamide]; experiment: thermal stability z-score vs DMSO; higher = more thermally stabilized by treatment; conditions: HeLa; lipoamide concentration 100 µM; arsenate co-treatment: none
Procedure: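 Cellular thermal proteome profiling in HeLa cells. Cells were treated with 100 µM lipoamide for 1 h, with or without 1 mM arsenate for a further 1 h, then heated to ten temperatures (37-66.3 °C), and soluble protein was quantified by TMT mass spectrometry relative to 0.1% DMSO controls. The thermal stability score (sum of log2 fold changes minus the abundance score) was transformed to a z-score; mean of n = 3 experiments.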
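Also: each temperature applied for 3 min, abundance score taken as mean log2 fold change at the two lowest temperatures, z-score obtained by mean subtraction and division by SD.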

Sequence of UniProt P60953 (P60953 whole entry, looked up): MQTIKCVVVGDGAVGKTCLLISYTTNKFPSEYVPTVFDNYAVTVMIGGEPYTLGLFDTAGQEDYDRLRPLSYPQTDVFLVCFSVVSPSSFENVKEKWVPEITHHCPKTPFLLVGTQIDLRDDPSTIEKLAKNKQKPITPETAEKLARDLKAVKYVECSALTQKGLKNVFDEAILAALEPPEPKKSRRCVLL
Sequence of UniProt Q15427 (Q15427 whole entry): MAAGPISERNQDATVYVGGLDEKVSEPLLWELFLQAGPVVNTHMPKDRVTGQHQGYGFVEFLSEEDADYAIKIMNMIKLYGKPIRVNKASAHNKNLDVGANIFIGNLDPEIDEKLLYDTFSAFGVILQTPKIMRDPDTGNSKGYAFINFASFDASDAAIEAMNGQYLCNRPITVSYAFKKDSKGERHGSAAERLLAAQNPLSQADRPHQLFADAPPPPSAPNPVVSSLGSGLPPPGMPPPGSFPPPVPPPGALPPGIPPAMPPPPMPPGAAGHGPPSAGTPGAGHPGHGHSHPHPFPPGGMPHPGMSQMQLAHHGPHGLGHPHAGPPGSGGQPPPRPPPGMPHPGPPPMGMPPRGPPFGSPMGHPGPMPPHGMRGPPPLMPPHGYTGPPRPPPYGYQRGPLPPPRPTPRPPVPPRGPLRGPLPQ
Sequence of UniProt Q7Z5K2 (Q7Z5K2 whole entry): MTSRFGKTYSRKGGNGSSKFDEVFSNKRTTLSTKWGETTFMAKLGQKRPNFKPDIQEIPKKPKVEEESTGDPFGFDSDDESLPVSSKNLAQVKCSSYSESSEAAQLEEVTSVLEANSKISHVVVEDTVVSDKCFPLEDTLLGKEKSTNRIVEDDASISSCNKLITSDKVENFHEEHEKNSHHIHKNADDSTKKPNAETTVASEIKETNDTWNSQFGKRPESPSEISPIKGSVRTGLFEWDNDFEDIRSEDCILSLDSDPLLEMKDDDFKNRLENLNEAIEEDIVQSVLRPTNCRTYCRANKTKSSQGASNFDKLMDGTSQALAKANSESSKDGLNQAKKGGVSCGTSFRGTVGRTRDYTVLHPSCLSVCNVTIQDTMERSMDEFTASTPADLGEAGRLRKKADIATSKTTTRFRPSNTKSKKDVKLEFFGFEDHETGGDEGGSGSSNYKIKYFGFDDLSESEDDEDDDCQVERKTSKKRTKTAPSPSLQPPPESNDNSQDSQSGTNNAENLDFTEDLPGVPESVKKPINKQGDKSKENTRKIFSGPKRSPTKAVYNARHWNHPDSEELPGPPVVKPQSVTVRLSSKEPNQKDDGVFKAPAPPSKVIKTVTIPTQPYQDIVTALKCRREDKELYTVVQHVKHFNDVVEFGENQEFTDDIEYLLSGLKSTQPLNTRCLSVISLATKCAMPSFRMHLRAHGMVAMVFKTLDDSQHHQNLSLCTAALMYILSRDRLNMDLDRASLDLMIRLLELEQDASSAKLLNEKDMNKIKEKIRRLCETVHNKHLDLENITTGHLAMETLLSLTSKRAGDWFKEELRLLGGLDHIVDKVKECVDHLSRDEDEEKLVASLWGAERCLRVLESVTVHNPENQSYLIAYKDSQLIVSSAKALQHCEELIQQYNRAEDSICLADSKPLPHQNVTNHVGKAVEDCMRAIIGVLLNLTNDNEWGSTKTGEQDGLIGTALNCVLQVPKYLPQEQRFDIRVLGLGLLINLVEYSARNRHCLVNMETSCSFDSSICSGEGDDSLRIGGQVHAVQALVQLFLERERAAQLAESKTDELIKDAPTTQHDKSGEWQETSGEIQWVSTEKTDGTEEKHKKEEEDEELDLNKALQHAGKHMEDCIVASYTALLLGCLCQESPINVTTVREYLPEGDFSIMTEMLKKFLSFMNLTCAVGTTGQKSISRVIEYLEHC
Sequence of UniProt Q9BZJ0 (Q9BZJ0 whole entry): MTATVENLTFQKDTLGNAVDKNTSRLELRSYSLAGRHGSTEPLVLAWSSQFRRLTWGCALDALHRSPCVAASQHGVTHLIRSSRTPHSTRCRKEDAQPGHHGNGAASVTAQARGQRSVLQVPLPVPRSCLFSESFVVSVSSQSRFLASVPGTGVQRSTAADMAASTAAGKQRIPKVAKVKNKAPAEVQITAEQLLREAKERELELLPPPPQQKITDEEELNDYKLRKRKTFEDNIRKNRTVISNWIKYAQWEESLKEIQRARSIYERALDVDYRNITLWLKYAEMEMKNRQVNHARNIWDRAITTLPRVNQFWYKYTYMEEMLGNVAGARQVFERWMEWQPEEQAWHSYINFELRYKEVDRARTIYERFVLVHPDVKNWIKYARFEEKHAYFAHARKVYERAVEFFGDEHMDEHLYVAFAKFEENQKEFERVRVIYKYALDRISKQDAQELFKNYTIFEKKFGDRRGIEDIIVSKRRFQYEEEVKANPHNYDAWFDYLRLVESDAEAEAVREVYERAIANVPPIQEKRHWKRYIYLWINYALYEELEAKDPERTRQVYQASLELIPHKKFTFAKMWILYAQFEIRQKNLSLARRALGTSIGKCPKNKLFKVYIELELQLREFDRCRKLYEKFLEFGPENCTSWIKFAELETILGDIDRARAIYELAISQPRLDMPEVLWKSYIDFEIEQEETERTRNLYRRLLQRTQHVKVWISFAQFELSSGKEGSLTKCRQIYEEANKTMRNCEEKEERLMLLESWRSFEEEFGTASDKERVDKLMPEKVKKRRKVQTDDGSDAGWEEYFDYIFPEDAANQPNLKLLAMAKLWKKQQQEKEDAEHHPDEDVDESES
Sequence of UniProt Q9Y3Q3 (Q9Y3Q3 whole entry): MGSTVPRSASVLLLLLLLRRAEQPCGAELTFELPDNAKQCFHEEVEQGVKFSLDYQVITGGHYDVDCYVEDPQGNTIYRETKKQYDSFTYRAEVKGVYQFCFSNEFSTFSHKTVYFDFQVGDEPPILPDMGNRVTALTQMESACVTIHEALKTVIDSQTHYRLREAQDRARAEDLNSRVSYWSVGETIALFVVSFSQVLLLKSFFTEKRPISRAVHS
Sequence of UniProt Q9P000 (Q9P000 whole entry): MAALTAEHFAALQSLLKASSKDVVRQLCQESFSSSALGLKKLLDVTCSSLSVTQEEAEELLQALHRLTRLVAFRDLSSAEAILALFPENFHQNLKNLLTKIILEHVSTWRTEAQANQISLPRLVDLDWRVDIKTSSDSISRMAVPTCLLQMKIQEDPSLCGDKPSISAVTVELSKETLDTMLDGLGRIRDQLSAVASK
Sequence of UniProt P06280 (P06280 whole entry): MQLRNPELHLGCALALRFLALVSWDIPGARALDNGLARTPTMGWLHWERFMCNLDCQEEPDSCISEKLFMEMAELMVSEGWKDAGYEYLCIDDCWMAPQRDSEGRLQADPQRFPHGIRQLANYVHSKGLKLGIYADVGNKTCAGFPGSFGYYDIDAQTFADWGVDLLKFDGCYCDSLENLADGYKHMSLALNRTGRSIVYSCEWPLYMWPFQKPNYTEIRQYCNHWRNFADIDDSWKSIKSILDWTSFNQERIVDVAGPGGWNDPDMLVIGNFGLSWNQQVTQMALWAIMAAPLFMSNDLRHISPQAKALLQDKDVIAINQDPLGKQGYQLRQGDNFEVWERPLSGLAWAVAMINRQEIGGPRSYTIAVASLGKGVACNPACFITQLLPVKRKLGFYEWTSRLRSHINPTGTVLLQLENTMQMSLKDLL
Sequence of UniProt O95801 (O95801 whole entry): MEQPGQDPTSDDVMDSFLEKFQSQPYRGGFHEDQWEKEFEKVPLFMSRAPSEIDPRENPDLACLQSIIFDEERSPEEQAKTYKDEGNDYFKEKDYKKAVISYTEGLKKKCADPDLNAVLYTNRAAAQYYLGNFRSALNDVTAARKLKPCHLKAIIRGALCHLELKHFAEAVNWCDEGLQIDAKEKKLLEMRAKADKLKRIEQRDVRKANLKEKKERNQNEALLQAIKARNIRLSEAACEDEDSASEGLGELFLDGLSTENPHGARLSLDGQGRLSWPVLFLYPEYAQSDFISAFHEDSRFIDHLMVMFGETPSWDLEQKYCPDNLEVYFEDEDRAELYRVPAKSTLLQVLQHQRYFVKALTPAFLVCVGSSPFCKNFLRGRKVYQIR
Sequence of UniProt O75884 (O75884 whole entry, looked up): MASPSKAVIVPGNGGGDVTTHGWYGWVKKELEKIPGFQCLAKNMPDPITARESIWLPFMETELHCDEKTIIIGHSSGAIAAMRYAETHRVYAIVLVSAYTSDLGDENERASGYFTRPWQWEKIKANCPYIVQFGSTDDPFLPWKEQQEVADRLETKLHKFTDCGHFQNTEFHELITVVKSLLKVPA

Compared with CARD19 (UniProt Q96LW7), TTC4 (UniProt O95801) is lower in thermal stability z-score: 1.37 for the first, 0.0918 for the second.

First: RNH1 (UniProt P13489)
Second: LHPP (UniProt Q9H008)
The thermal stability z-score of the first is lower: 0.478 for the first, 0.991 for the second.

First: NUP62 (UniProt P37198)
Second: NT5C (UniProt Q8TCD5)
The thermal stability z-score of the first is higher: -0.358 for the first, -0.516 for the second.

Going from PCM1 (UniProt Q15154) to TPD52L2 (UniProt O43399), the thermal stability z-score rises from -0.104 to 1.19.

Going from DNTTIP2 (UniProt Q5QJE6) to CRNKL1 (UniProt Q9BZJ0), the thermal stability z-score rises from 0.12 to 0.156.

Going from CDC42 (UniProt P60953) to SRP72 (UniProt O76094), the thermal stability z-score falls from 0.454 to -0.00987.

Compared with GLA (UniProt P06280), G3V3G9 (UniProt P40855) is higher in thermal stability z-score: -0.822 for the first, -0.13 for the second.

First: IRGQ (UniProt Q8WZA9)
Second: WDR12 (UniProt Q9GZL7)
The thermal stability z-score of the first is lower: -0.257 for the first, 0.222 for the second.

First: C4BPA (UniProt P04003)
Sequence of UniProt P04003 (P04003 whole entry): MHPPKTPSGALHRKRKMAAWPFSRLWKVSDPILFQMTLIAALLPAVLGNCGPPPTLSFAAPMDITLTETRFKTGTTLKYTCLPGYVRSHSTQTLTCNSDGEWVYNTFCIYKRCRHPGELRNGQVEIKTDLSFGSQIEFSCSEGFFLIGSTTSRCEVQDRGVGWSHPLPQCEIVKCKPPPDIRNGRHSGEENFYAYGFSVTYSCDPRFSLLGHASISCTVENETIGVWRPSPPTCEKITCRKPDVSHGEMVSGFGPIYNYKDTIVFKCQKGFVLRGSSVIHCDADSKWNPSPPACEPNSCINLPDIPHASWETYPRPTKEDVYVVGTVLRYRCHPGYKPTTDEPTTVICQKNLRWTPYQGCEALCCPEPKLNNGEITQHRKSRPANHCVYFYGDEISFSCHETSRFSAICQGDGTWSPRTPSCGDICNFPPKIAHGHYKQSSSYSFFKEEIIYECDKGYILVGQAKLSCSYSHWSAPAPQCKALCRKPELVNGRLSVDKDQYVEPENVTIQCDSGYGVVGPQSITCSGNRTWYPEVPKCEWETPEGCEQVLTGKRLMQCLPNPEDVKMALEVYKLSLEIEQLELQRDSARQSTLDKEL
Second: TTI2 (UniProt Q6NXR4)
The thermal stability z-score of the first is lower: -5.12 for the first, -0.63 for the second.

Going from SF3B4 (UniProt Q15427) to WAPL (UniProt Q7Z5K2), the thermal stability z-score rises from -0.211 to 0.484.

First: SLC25A20 (UniProt O43772)
Sequence of UniProt O43772 (O43772 whole entry): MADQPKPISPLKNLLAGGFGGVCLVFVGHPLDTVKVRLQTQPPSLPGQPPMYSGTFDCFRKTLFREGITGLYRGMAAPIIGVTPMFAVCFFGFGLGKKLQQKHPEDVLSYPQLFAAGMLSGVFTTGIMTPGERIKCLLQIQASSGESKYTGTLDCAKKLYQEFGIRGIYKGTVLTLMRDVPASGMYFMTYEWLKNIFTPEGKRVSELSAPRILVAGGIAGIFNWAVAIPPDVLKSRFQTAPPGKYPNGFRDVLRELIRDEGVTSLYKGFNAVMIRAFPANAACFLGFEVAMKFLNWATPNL
Second: CCDC137 (UniProt Q6PK04)
The thermal stability z-score of the first is higher: 0.0858 for the first, -0.941 for the second.

First: PSEN2 (UniProt P49810)
Second: DROSHA (UniProt Q9NRR4)
The thermal stability z-score of the first is lower: -1.79 for the first, -0.127 for the second.

Compared with USP5 (UniProt P45974), DST (UniProt Q03001) is lower in thermal stability z-score: 0.351 for the first, -0.113 for the second.

Going from VPS26B (UniProt Q4G0F5) to TMED3 (UniProt Q9Y3Q3), the thermal stability z-score falls from -0.118 to -0.398.

Compared with ERI1 (UniProt Q8IV48), RBBP9 (UniProt O75884) is lower in thermal stability z-score: 0.343 for the first, 0.162 for the second.

First: GIT1 (UniProt Q9Y2X7)
Second: ATIC (UniProt P31939)
The thermal stability z-score of the first is lower: -0.311 for the first, -0.0656 for the second.

First: CFAP97 (UniProt Q9P2B7)
Second: SMPD4 (UniProt Q9NXE4)
The thermal stability z-score of the first is lower: -0.518 for the first, 0.149 for the second.

Compared with COMMD9 (UniProt Q9P000), KIAA0907 (UniProt Q7Z7F0) is lower in thermal stability z-score: -0.146 for the first, -1.09 for the second.

compound: O=[As]([O-])(O)O.[K+] [potassium arsenate]; experiment: as above; conditions: HeLa; arsenate concentration 1 mM
Procedure: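 Cellular thermal proteome profiling in HeLa cells treated with 1 mM arsenate for 1 h (DMSO pretreatment), heated to ten temperatures (37-66.3 °C). Soluble protein was quantified by TMT mass spectrometry relative to DMSO controls; the thermal stability score was transformed to a z-score; mean of n = 3 experiments.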

First: METAP1 (UniProt P53582)
Second: PSMD5 (UniProt Q16401)
The thermal stability z-score of the first is higher: 0.894 for the first, 0.282 for the second.

Compared with HINT2 (UniProt Q9BX68), CDKAL1 (UniProt Q5VV42) is higher in thermal stability z-score: -1.98 for the first, -0.903 for the second.

Compared with AK6 (UniProt Q9Y3D8), CHAF1A (UniProt Q13111) is higher in thermal stability z-score: -2.09 for the first, -0.0415 for the second.

Going from STAU2 (UniProt Q9NUL3) to CLTA (UniProt P09496), the thermal stability z-score rises from -0.323 to 0.655.

Compared with PAF1 (UniProt Q8N7H5), TULP3 (UniProt O75386) is higher in thermal stability z-score: -0.714 for the first, -0.00993 for the second.

Going from SLC29A1 (UniProt Q99808) to NT5DC3 (UniProt Q86UY8), the thermal stability z-score falls from 0.277 to -0.179.

First: LRRC8D (UniProt Q7L1W4)
Second: MRPL17 (UniProt Q9NRX2)
The thermal stability z-score of the first is higher: -0.198 for the first, -0.206 for the second.

Going from EIF2AK1 (UniProt Q9BQI3) to CHCHD1 (UniProt Q96BP2), the thermal stability z-score falls from 0.583 to -0.0935.

First: FARSB (UniProt Q9NSD9)
Second: OGDH (UniProt Q02218)
The thermal stability z-score of the first is higher: 0.893 for the first, -0.531 for the second.

First: PREB (UniProt Q9HCU5)
Second: WASF1 (UniProt Q92558)
The thermal stability z-score of the first is higher: -0.0461 for the first, -0.375 for the second.

Compared with ASCC2 (UniProt Q9H1I8), PI4K2A (UniProt Q9BTU6) is lower in thermal stability z-score: 1.51 for the first, -0.0745 for the second.

Compared with FADD (UniProt Q13158), AKIRIN2 (UniProt Q53H80) is lower in thermal stability z-score: 0.325 for the first, 0.307 for the second.

Compared with SIPA1 (UniProt Q96FS4), ATP6V1D (UniProt Q9Y5K8) is lower in thermal stability z-score: 0.319 for the first, -0.425 for the second.

Going from CAPN2 (UniProt P17655) to NEDD4 (UniProt P46934), the thermal stability z-score falls from 0.109 to -0.128.

First: U2AF1L5|U2AF1
Second: SPATS2L (UniProt Q9NUQ6)
The thermal stability z-score of the first is lower: -1.4 for the first, -0.0325 for the second.

First: NECTIN2 (UniProt Q92692)
Second: ANKRD28 (UniProt O15084)
The thermal stability z-score of the first is higher: 0.0945 for the first, -0.209 for the second.

Going from COPS3 (UniProt Q9UNS2) to DUS3L (UniProt Q96G46), the thermal stability z-score falls from 0.344 to -0.458.

First: NFAT5 (UniProt O94916)
Second: CARD19 (UniProt Q96LW7)
The thermal stability z-score of the first is higher: 1.37 for the first, 0.524 for the second.

Compared with TTC4 (UniProt O95801), RNH1 (UniProt P13489) is lower in thermal stability z-score: -0.14 for the first, -4.26 for the second.

Going from LHPP (UniProt Q9H008) to NUP62 (UniProt P37198), the thermal stability z-score rises from 0.146 to 0.329.

First: NT5C (UniProt Q8TCD5)
Second: PCM1 (UniProt Q15154)
The thermal stability z-score of the first is lower: -0.982 for the first, 0.131 for the second.

First: TPD52L2 (UniProt O43399)
Second: DNTTIP2 (UniProt Q5QJE6)
The thermal stability z-score of the first is higher: 0.621 for the first, 0.279 for the second.

Compared with CRNKL1 (UniProt Q9BZJ0), CDC42 (UniProt P60953) is higher in thermal stability z-score: -0.00401 for the first, 0.0976 for the second.

Compared with SRP72 (UniProt O76094), GLA (UniProt P06280) is lower in thermal stability z-score: 0.424 for the first, 0.421 for the second.

Compared with G3V3G9 (UniProt P40855), IRGQ (UniProt Q8WZA9) is higher in thermal stability z-score: -0.695 for the first, -0.24 for the second.

First: WDR12 (UniProt Q9GZL7)
Second: C4BPA (UniProt P04003)
The thermal stability z-score of the first is lower: 0.0663 for the first, 1.08 for the second.

Compared with TTI2 (UniProt Q6NXR4), SF3B4 (UniProt Q15427) is lower in thermal stability z-score: 0.0606 for the first, -0.243 for the second.

Going from WAPL (UniProt Q7Z5K2) to SLC25A20 (UniProt O43772), the thermal stability z-score rises from -0.434 to -0.0934.

Going from CCDC137 (UniProt Q6PK04) to PSEN2 (UniProt P49810), the thermal stability z-score rises from -1.66 to -1.19.

First: DROSHA (UniProt Q9NRR4)
Second: USP5 (UniProt P45974)
The thermal stability z-score of the first is higher: 0.141 for the first, 0.0981 for the second.

Compared with DST (UniProt Q03001), VPS26B (UniProt Q4G0F5) is higher in thermal stability z-score: -0.103 for the first, 0.0841 for the second.

Compared with TMED3 (UniProt Q9Y3Q3), ERI1 (UniProt Q8IV48) is lower in thermal stability z-score: 0.316 for the first, -1.14 for the second.

Going from RBBP9 (UniProt O75884) to GIT1 (UniProt Q9Y2X7), the thermal stability z-score falls from 0.167 to -0.368.

First: ATIC (UniProt P31939)
Second: CFAP97 (UniProt Q9P2B7)
The thermal stability z-score of the first is lower: -1.07 for the first, -0.864 for the second.

Going from SMPD4 (UniProt Q9NXE4) to COMMD9 (UniProt Q9P000), the thermal stability z-score falls from 1.11 to -0.0631.

In the case of KIAA0907 (UniProt Q7Z7F0), the thermal stability z-score was -0.94.
